BigSolDB 2.1

OC[C@@H](O)C(O)[C@@H](O)CO (some centres not stated)
Settings	solubility (mole fraction)
in DMF, 293.21 K	0.0411
in DMF, 298.29 K	0.0504
in DMF, 303.26 K	0.0609
in DMF, 308.24 K	0.0736
in DMF, 313.22 K	0.0895
in DMF, 318.32 K	0.11
in DMF, 323.2 K	0.134
in DMF, 328.24 K	0.166
in DMF, 333.27 K	0.204
in acetone, 293.29 K	0.000203
in acetone, 298.18 K	0.00024
in acetone, 303.26 K	0.000304
in acetone, 308.22 K	0.000401
in acetone, 313.2 K	0.000543
in acetone, 318.23 K	0.000743
in acetone, 323.2 K	0.00101
in ethanol, 293.23 K	0.00173
in ethanol, 298.28 K	0.00242
in ethanol, 303.17 K	0.00309
in ethanol, 308.21 K	0.00397
in ethanol, 313.19 K	0.00522
in ethanol, 318.29 K	0.00709
in ethanol, 323.24 K	0.00966
in ethanol, 328.19 K	0.0132
in ethanol, 333.22 K	0.0179
in isopropanol, 293.28 K	0.00113
in isopropanol, 298.2 K	0.00154
in isopropanol, 303.23 K	0.00212
in isopropanol, 308.19 K	0.00268
in isopropanol, 313.32 K	0.00342
in isopropanol, 318.21 K	0.00443
in isopropanol, 323.16 K	0.00588
in isopropanol, 328.21 K	0.00798
in isopropanol, 333.27 K	0.0109
in isopropanol, 338.19 K	0.0146
in isopropanol, 343.23 K	0.0194
in n-butanol, 293.16 K	0.00113
in n-butanol, 298.21 K	0.00154
in n-butanol, 303.26 K	0.00212
in n-butanol, 308.27 K	0.00268
in n-butanol, 313.22 K	0.00342
in n-butanol, 318.16 K	0.00443
in n-butanol, 323.23 K	0.00588
in n-butanol, 328.32 K	0.00798
in n-butanol, 333.24 K	0.0109
in n-butanol, 338.22 K	0.0146
in n-butanol, 343.76 K	0.0194
in n-pentanol, 293.2 K	0.000298
in n-pentanol, 298.18 K	0.000483
in n-pentanol, 303.26 K	0.000734
in n-pentanol, 308.29 K	0.00101
in n-pentanol, 313.19 K	0.00136
in n-pentanol, 318.24 K	0.00188
in n-pentanol, 323.29 K	0.00263
in n-pentanol, 328.23 K	0.00364
in n-pentanol, 333.22 K	0.005
in n-pentanol, 338.33 K	0.00682
in n-pentanol, 343.24 K	0.00903
in toluene, 293.26 K	3.99e-05
in toluene, 298.28 K	4.18e-05
in toluene, 303.19 K	4.52e-05
in toluene, 308.17 K	5e-05
in toluene, 313.23 K	5.63e-05
in toluene, 318.33 K	6.42e-05
in toluene, 323.21 K	7.31e-05
in toluene, 328.22 K	8.37e-05
in toluene, 333.3 K	9.6e-05
in toluene, 338.16 K	0.000109
in toluene, 343.19 K	0.000124
in water, 293.28 K	0.162
in water, 298.3 K	0.18
in water, 303.17 K	0.203
in water, 308.21 K	0.232
in water, 313.29 K	0.266
in water, 318.26 K	0.302
in water, 323.25 K	0.339
in water, 328.21 K	0.377
